Reference: US11766470B2, “Manufacture, formulation and dosing of apraglutide” (VectivBio AG, priority 2020, dated 2023)
Square brackets hold non-standard residues; d marks the D form. Peptide text beside a SMILES is read from it. ξ: configuration not given here. Ile(3ξ) = CCC(C)[C@H](N)C(=O)O; Thr(3ξ) = CC(O)[C@H](N)C(=O)O; Nle = CCCC[C@H](N)C(=O)O

System: patients with SBS-IF
Experiment: Phase 2 placebo-controlled crossover trial in SBS-IF patients (Example 5): urine output, urine sodium, PS volume, oral fluid intake, hydration parameters, plasma L-citrulline, body composition
Type: in vivo, human
Experimental: The following non-limiting example describes results from a Phase 2 clinical trial in which subjects with SBS-IF were treated with the apraglutide formulations of the present disclosure. This Phase 2 trial investigated the safety and efficacy of 5 and 10 mg apraglutide in patients with SBS-IF.
Eight adult patients with SBS-IF were treated with apraglutide compositions of the present disclosure according to Table 6. Briefly, patients with SBS-IF were administered 5 mg apraglutide of the present disclosure or placebo once a week for four weeks. The patients were then administered 10 mg apraglutide of the present disclosure once a week for four weeks. Additionally, there was a washout period of 6-10 weeks between treatments.
The trial described in Example 5 was a double-blind, crossover, randomized, placebo-controlled, phase 2 trial followed by an additional treatment period in an open-label regimen. Eight adult patients (aged ≥18 to ≤80 years) with SBS-IF were enrolled in the trial. Patient eligibility was assessed during a screening visit. The main inclusion criteria were: Patients with SBS secondary to surgical resection of the small bowel with a jejuno- or ileostomy, at least 6 months since last bowel resection, a fecal output of at least 1500 g/day as recorded within the last 18 months, and PS-infusions≥3 times per week for ≥12 months according to the patient's medical record. Patients were excluded, if they had clinical signs of activity in inflammatory bowel disease, a history of cancer within ≤5 years or an inadequate hepatic, kidney, or heart function. Patients were also excluded, if they had received native GLP-2 or a GLP-2 analogue within the last 3 months.
The procedures during each treatment period were consistent.
Efficacy assessments were performed for each treatment period of 29 days. Patients received a paper diary for recording PS volume administration, urine collections and oral fluid intakes at specific time points. Patients performed home 48-hour urine collections at baseline (day −2 to 1), immediately after first treatment injection (day 1 to 3), and at the end of the treatment period (day 27-29, […] after the fourth administration of the trial drug). Urine was collected by the patient in a urine container with volume markings and 48-hour urine volumes were reported in the diary. After completing the 48-hour collection, patients transferred approximately 100 mL of urine from the container to a sample which was delivered at the next patient visit. The amount of sodium excreted per 48 hours was then calculated as the concentration of sodium in the sample multiplied by the total volume of urine collected. During each urine collection, weekly PS volume and content and daily oral fluid intake were kept constant. Since they were kept constant, increases in urine volume were a sign of increased fluid absorption. […] Patients were to adhere to their drinking menu during each urine collection and the concomitant 48-hour oral fluid intake was reported in the diary during each urine collection.
On day 20-22, patients were informed to record their spontaneous oral fluid intake during 48 hours. This measurement was included to investigate whether increased intestinal absorption was associated with a decrease in their spontaneous oral fluid intake.
Between day 4 and 24, PS volume reductions were allowed if deemed clinically necessary by the investigator. […] PS volume reductions were assessed during day 20-22. Patients returned to their baseline PS volume and content during the end of the treatment urine collection (day 27-29). Concomitant medications including proton-pump inhibitors, loperamide, and opiates were kept unchanged and stable throughout the trial. If necessary, adjustments could be made in the drinking menu and prescribed PS volume and content between treatment periods based on discussions between the patient and the investigator.
Body weight was measured using a levelled platform scale. […]

[1] = 5 mg vs 10 mg, Part A+B, day 1-3 after first injection
[2] = 5 mg vs 10 mg, Part A+B, day 20-22
[3] = 5 mg vs 10 mg, Part A+B, day 27-29
[4] = 5 mg vs 10 mg, Part A+B, end of treatment
[5] = 5 mg vs placebo, Part A+B, day 1-3 after first injection
[6] = 5 mg vs placebo, Part A+B, day 20-22
[7] = 5 mg vs placebo, Part A+B, day 27-29
[8] = 5 mg vs placebo, Part A+B, day 27-29, listed as Apraglutide
[9] = 5 mg vs placebo, Part A+B, end of treatment

Question: With `CCCC[C@H](NC(=O)[C@H](CCC(=O)O)NC(=O)[C@H](CC(=O)O)NC(=O)[C@H](CO)NC(=O)[C@H](Cc1ccccc1)NC(=O)[C@H](CO)NC(=O)CNC(=O)[C@H](CC(=O)O)NC(=O)CNC(=O)[C@@H](N)Cc1c[nH]cn1)C(=O)N[C@H](Cc1ccccc1)C(=O)N[C@H](C(=O)N[C@H](C(=O)N[C@@H](CC(C)C)C(=O)N[C@@H](CC(=O)O)C(=O)N[C@@H](CC(C)C)C(=O)N[C@@H](CC(C)C)C(=O)N[C@@H](C)C(=O)N[C@@H](C)C(=O)N[C@@H](CCCNC(=N)N)C(=O)N[C@@H](CC(=O)O)C(=O)N[C@@H](Cc1ccccc1)C(=O)N[C@H](C(=O)N[C@@H](CC(N)=O)C(=O)N[C@@H](Cc1c[nH]c2ccccc12)C(=O)N[C@@H](CC(C)C)C(=O)N[C@H](C(=O)N[C@@H](CCC(N)=O)C(=O)N[C@H](C(=O)N[C@@H](CCCCN)C(=O)N[C@H](C(=O)N[C@H](C(=O)N[C@@H](CC(=O)O)C(N)=O)C(C)O)C(C)CC)C(C)O)C(C)CC)C(C)CC)C(C)CC)C(C)O` (stereo partly drawn) [apraglutide, L-histidyl-glycyl-L-aspartyl-glycyl-L-seryl-L-phenylalanyl-L-seryl-L-aspartyl-L-glutamyl-L-norleucyl-D-phenylalanyl-L-threonyl-Lisoleucyl-L-leucyl-L-aspartyl-L-leucyl-L-leucyl-L-alanyl-L-alanyl-L-arginyl-L-aspartyl-L-phenylalanyl-L-isoleucyl-L-asparaginyl-Ltryptophanyl-L-leucyl-L-isoleucyl-L-glutaminyl-L-threonyl-L-lysyl-L-isoleucyl-L-threonyl-Laspartic acid amide] (H-HGDGSFSDE[Nle][dF][Thr(3ξ)][Ile(3ξ)]LDLLAARDF[Ile(3ξ)]NWL[Ile(3ξ)]Q[Thr(3ξ)]K[Ile(3ξ)][Thr(3ξ)]D-NH2) as the compound, how does the “Patients with increased relative urine volume output compared to placebo (exceeding 10%)” value (5 mg) read?
Answer: Its value is 6 out of 8.

Question: And the “Absolute urine output, adjusted mean change from baseline” value [1]?
Answer: The value was −26 (−462 to 409); mL/day.

Question: And the “Relative urine output, adjusted mean change from baseline” value [1]?
Answer: The value was −12 (−43 to 19); %.

Question: And the “Urine sodium excretion (%), adjusted mean change from baseline” value [1]?
Answer: Its value is −43(−149 to 63); %.

Question: And the “Urine sodium excretion, adjusted mean change from baseline” value [1]?
Answer: Its value is −1 (−22 to 20); mmol/day.

Question: And the “Oral fluid intake, adjusted mean change from baseline” value [2]?
Answer: Its value is −119 (−396 to 157); mL/day.

Question: What about the “PS volume, adjusted mean change from baseline” value [2] of the same compound?
Answer: Its value is −380 (−851 to 91); mL/day.

Question: And the “Relative PS volume, adjusted mean change from baseline” value [2]?
Answer: The value was −15 (−38 to 9); %.

Question: And the “Relative oral fluid intake, adjusted mean change from baseline” value [2]?
Answer: Its value is −7 (−17 to 3); %.

Question: And the “Absolute urine output, adjusted mean change from baseline” value [3]?
Answer: The value was 84 (−514 to 682); mL/day.

Question: And the “Relative urine output, adjusted mean change from baseline” value [3]?
Answer: The value was −14 (−51 to 23); %.

Question: And the “Urine sodium excretion (%), adjusted mean change from baseline” value [3]?
Answer: The value was 266 (−266 to 798); %.

Question: And the “Urine sodium excretion, adjusted mean change from baseline” value [3]?
Answer: The value was 32 (−37 to 101); mmol/day.

Question: And the “Albumin, adjusted mean change from baseline” value [4]?
Answer: The value was 1.0 (−0.8 to 2.9); g/L.

Question: And the “Aldosterone, adjusted mean change from baseline” value [4]?
Answer: The value was −151 (−3,570 to 3,268); pmol/L.

Question: And the “Body weight, adjusted mean change from baseline” value [4]?
Answer: Its value is −0.6 (−2.4 to 1.3); kg.

Question: What about the “Bone mineral content, adjusted mean change from baseline” value [4] of the same compound?
Answer: Its value is 12 (−57 to 82); g.

Question: What about the “CO2 total, adjusted mean change from baseline” value [4] of the same compound?
Answer: The value was 1.0 (−1.4 to 3.4); mmol/L.

Question: What about the “Creatinine, adjusted mean change from baseline” value [4] of the same compound?
Answer: Its value is 4.6 (−12.3 to 21.5); umol/L.

Question: And the “Fat body mass, adjusted mean change from baseline” value [4]?
Answer: Its value is −1.44 (−2.92 to 0.04); kg.

Question: And the “Hematocrit, adjusted mean change from baseline” value [4]?
Answer: The value was −0.4 (−1.2 to 0.4); vol/fr.

Question: And the “Lean body mass, adjusted mean change from baseline” value [4]?
Answer: The value was 0.12 (−3.00 to 3.24); kg.

Question: And the “Plasma L-citrulline, adjusted mean change from baseline” value [4]?
Answer: Its value is −3.6 (−19.8 to 12.6); μmol/L.

Question: What about the “Protein, adjusted mean change from baseline” value [4] of the same compound?
Answer: The value was −0.3 (−4.5 to 3.9); g/L.

Question: What about the “Relative body weight, adjusted mean change from baseline” value [4] of the same compound?
Answer: The value was −1 (−4 to 2); %.

Question: What about the “Relative bone mineral content, adjusted mean change from baseline” value [4] of the same compound?
Answer: The value was 0 (−3 to 3); %.

Question: What about the “Relative fat body mass, adjusted mean change from baseline” value [4] of the same compound?
Answer: Its value is −7 (−16 to 1); %.

Question: What about the “Relative lean body mass, adjusted mean change from baseline” value [4] of the same compound?
Answer: The value was −0 (−8 to 7); %.

Question: What about the “Relative plasma L-citrulline, adjusted mean change from baseline” value [4] of the same compound?
Answer: The value was −23 (−74 to 29); %.

Question: And the “Urea, adjusted mean change from baseline” value [4]?
Answer: The value was 0.3 (−1.3 to 1.9); mmol/L.

Question: And the “Fluid composite effect, estimated difference between the two doses” value (5 mg vs 10 mg, post-hoc, Part A+B)?
Answer: The value was 594.

Question: And the “Absolute urine output, adjusted mean change from baseline” value [5]?
Answer: Its value is −38 (−456 to 381); mL/day.

Question: What about the “Relative urine output, adjusted mean change from baseline” value [5] of the same compound?
Answer: Its value is 6 (−24 to 35); %.

Question: What about the “Urine sodium excretion (%), adjusted mean change from baseline” value [5] of the same compound?
Answer: Its value is 65 ( −36 to 166); %.

Question: What about the “Urine sodium excretion, adjusted mean change from baseline” value [5] of the same compound?
Answer: Its value is 3 (−17 to 23); mmol/day.

Question: What about the “PS volume, adjusted mean change from baseline” value [6] of the same compound?
Answer: Its value is −89 (−543 to 366); mL/day.

Question: What about the “Relative PS volume, adjusted mean change from baseline” value [6] of the same compound?
Answer: The value was −13 (−36 to 9); %.

Question: What about the “Relative oral fluid intake, adjusted mean change from baseline” value [6] of the same compound?
Answer: The value was −9 (−18 to 1); %.

Question: What about the “Absolute urine output, adjusted mean change from baseline” value [7] of the same compound?
Answer: The value was 711 (132 to 1,289); mL/day.

Question: And the “Relative urine output, adjusted mean change from baseline” value [7]?
Answer: The value was 48 (12 to 84); %.

Question: And the “Urine sodium excretion (%), adjusted mean change from baseline” value [7]?
Answer: The value was 166 (−342 to 675); %.

Question: And the “Urine sodium excretion, adjusted mean change from baseline” value [7]?
Answer: Its value is 56 (−10 to 123); mmol/day.

Question: What about the “Absolute urine output, adjusted mean change from baseline” value [8] of the same compound?
Answer: Its value is 711 mL/day.

Question: What about the “Relative urine output, adjusted mean change from baseline” value [8] of the same compound?
Answer: Its value is 48%.

Question: What about the “Urine sodium excretion, adjusted mean change from baseline” value [8] of the same compound?
Answer: Its value is 56 mmol/day.

Question: What about the “Albumin, adjusted mean change from baseline” value [9] of the same compound?
Answer: The value was −0.0 (−1.8 to 1.8); g/L.

Question: And the “Body weight, adjusted mean change from baseline” value [9]?
Answer: The value was 1.9 (0.1 to 3.7); kg.

Question: What about the “Bone mineral content, adjusted mean change from baseline” value [9] of the same compound?
Answer: Its value is −4 (−73 to 66); g.

Question: And the “CO2 total, adjusted mean change from baseline” value [9]?
Answer: The value was 0.3 (−2.0 to 2.6); mmol/L.

Question: And the “Creatinine, adjusted mean change from baseline” value [9]?
Answer: Its value is −9.7(−25.8 to 6.4); umol/L.

Question: And the “Fat body mass, adjusted mean change from baseline” value [9]?
Answer: The value was 1.77 (0.29 to 3.24); kg.

Question: And the “Hematocrit, adjusted mean change from baseline” value [9]?
Answer: Its value is 0.6 (−0.2 to1.4); vol/fr.

Question: And the “Lean body mass, adjusted mean change from baseline” value [9]?
Answer: Its value is 0.64 (−2.49 to 3.77); kg.

Question: And the “Plasma L-citrulline, adjusted mean change from baseline” value [9]?
Answer: The value was 17.6 (2.0 to 33.2); μmol/L.

Question: And the “Protein, adjusted mean change from baseline” value [9]?
Answer: The value was −0.4 (−4.2 to 3.4); g/L.
